Test results reported in patent publication US8946296B2, “Substituted heteroaryl- and aryl-cyclopropylamine acetamides and their use” (Oryzon Genomics S.A., priority 2009, dated 2015).
Structures can show the parent of a compound that is named as a salt.

Legend:
MAO-A = biological target: T1, MAO-A (Homo sapiens, UniProt P21397); assay: Monoamine oxidase assay, MAO-A (kynuramine to 4-hydroxyquinoline fluorescence); type: biochemical; details: Ki (IC50) range class; human recombinant MAO-A, kynuramine substrate
T1 construct: purchased Sigma Aldrich
T1 sequence (P21397 1-527): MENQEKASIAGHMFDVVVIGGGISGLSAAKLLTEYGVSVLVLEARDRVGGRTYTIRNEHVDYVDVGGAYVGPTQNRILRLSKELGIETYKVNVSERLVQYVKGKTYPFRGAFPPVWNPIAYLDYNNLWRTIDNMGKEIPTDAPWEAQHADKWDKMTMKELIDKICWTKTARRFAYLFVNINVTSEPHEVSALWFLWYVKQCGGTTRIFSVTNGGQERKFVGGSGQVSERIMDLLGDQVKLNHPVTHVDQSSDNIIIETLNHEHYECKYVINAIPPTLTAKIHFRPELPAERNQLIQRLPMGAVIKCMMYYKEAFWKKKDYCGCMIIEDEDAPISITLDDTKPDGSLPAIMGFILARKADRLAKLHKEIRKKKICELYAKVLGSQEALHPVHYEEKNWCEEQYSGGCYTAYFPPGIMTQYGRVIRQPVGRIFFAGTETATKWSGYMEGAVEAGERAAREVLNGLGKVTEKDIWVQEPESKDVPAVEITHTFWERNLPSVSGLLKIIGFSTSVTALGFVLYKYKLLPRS
From the text: (§1) Human recombinant monoamine oxidase proteins MAO-A and MAO-B were purchased from Sigma Aldrich. […] In order to monitor MAO enzymatic activities and/or their inhibition rate by inhibitor(s) of interest, a fluorescent-based (inhibitor)-screening assay was set up. 3-(2-Aminophenyl)-3-oxopropanamine (kynuramine dihydrobromide, Sigma Aldrich), a non fluorescent compound was chosen as a substrate. Kynuramine is a non-specific substrate for both MAOs activities. While undergoing oxidative deamination by MAO activities, kynuramine is converted into 4-hydroxyquinoline (4-HQ), a resulting fluorescent product.
(§2) The monoamine oxidase activity was estimated by measuring the conversion of kynuramine into 4-hydroxyquinoline. Assays were conducted in 96-well black plates with clear bottom (Corning) in a final volume of 100 μL. The assay buffer was 100 mM HEPES, pH 7.5. Each experiment was performed in triplicate within the same experiment.
(§3) The oxidative deamination of the substrate was stopped by adding 50 μL (v/v) of NaOH 2N.
(§4) The Ki of each inhibitor was measure at Vmax/2.

LSD1 = LSD1 (Homo sapiens, UniProt O60341); assay: LSD1 inhibition assay (Amplex Red peroxide/peroxidase-coupled, di-methylated H3-K4 peptide substrate)
MAO-B = biological target: T2, MAO-B (Homo sapiens, UniProt P27338); assay: Monoamine oxidase assay, MAO-B (kynuramine to 4-hydroxyquinoline fluorescence); type: biochemical; details: Ki (IC50) range class; human recombinant MAO-B, kynuramine substrate
T2 construct: purchased Sigma Aldrich
T2 sequence (P27338 1-520): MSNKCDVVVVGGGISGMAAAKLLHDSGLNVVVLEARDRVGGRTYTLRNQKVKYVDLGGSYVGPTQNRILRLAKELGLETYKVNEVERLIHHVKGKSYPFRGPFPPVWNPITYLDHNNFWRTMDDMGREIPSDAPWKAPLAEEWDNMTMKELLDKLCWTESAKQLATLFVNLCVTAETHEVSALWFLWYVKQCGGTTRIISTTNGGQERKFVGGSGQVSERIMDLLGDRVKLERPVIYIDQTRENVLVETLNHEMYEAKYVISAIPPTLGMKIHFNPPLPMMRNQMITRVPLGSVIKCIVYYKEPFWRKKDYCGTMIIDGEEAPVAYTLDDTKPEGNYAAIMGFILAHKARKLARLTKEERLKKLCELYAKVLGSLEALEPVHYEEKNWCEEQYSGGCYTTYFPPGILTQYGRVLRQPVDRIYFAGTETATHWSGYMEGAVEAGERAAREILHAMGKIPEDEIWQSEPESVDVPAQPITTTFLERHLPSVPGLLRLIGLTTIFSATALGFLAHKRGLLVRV
From the text: as §1, §2, §3, §4

| Ki (MAO-A) [nM] | Ki (LSD1) [nM] | Ki (MAO-B) [nM] | Structure (SMILES) |
| --- | --- | --- | --- |
| 500 to 5000 | 10 to 100 | 100 to 500 | N#Cc1cccc(COc2ccc([C@@H]3C[C@H]3NCC(N)=O)cc2)c1 (relative stereo) [Example 2, 2-((trans)-2-(4-(3-cyanobenzyloxy)phenyl)cyclopropylamino)acetamide hydrochloride] |
| 5000 to 40000 | 10 to 100 | 100 to 500 | NC(=O)CN[C@@H]1C[C@H]1c1ccc(OCc2cc(F)cc(F)c2)cc1 (relative stereo) [Example 9, 2((trans)-2-(4-(3,5-difluorobenzyloxy)phenyl)cyclopropylamino)acetamide] |
| 5000 to 40000 | 10 to 100 | 100 to 500 | NC(=O)CN[C@@H]1C[C@H]1c1ccc(OCc2cccc(F)c2)cc1 (relative stereo) [Example 5, 2-((trans)-2-(4-(3-fluorobenzyloxy)phenyl)cyclopropylamino)acetamide hydrochloride] |
| 500 to 5000 | 10 to 100 | 500 to 5000 | NC(=O)CN[C@@H]1C[C@H]1c1ccc(-c2ccc(Cl)cc2)nc1 (relative stereo) [Example 20, 2-((trans)-2-(6-(4-chlorophenyl)pyridin-3-yl)cyclopropylamino)acetamide] |
| > 40000 | 10 to 100 | 100 to 500 | NC(=O)CN[C@@H]1C[C@H]1c1ccc(OCc2cccc(Cl)c2)cc1 (relative stereo) [Example 6, 2-((trans)-2-(4-(3-chlorobenzyloxy)phenyl)cyclopropylamino)acetamide hydrochloride] |
| > 40000 | 100 to 500 | 100 to 500 | NC(=O)CN[C@H]1C[C@@H]1c1ccc(-c2ccc(-c3ccccc3)cc2)cc1 (stereo in doubt) [Example 12, 2-(2-[1,1′;4′,1″]Terphenyl-4″-yl-cyclopropylamino)acetamide] |
| 5000 to 40000 | 100 to 500 | 100 to 500 | NC(=O)CN[C@@H]1C[C@H]1c1ccc(OCc2ccccc2)cc1 (relative stereo) [Example 3, 2-((trans)-2-(4-(benzyloxy)phenyl)cyclopropylamino)acetamide] |
| 5000 to 40000 | 10 to 100 | 100 to 500 | NC(=O)CN[C@@H]1C[C@H]1c1ccc(OCCc2ccccc2)cc1 (relative stereo) [Example 10, 2-((trans)-2-(4-phenethoxyphenyl)cyclopropylamino)acetamide] |
| 5000 to 40000 | 100 to 500 | 100 to 500 | NC(=O)CN[C@@H]1C[C@H]1c1ccc(-c2cccc(C(F)(F)F)c2)cc1 (relative stereo) [Example 11, 2-((trans)-2-(3′-(trifluoromethyl)biphenyl-4-yl)cyclopropylamino)acetamide] |
| 5000 to 40000 | 10 to 100 | 100 to 500 | N#Cc1ccc(COc2ccc([C@@H]3C[C@H]3NCC(N)=O)cc2)cc1 (relative stereo) [Example 1, 2-((trans)-2-(4-(4-cyanobenzyloxy)phenyl)cyclopropylamino)acetamide hydrochloride] |
| > 40000 | 100 to 500 | 100 to 500 | NC(=O)CN[C@@H]1C[C@H]1c1ccc(OCc2ccc(F)cc2)cc1 (relative stereo) [Example 4, 2-((trans)-2-(4-(4-fluorobenzyloxy)phenyl)cyclopropylamino)acetamide hydrochloride] |
| > 40000 | 100 to 500 | 100 to 500 | NC(=O)CN[C@@H]1C[C@H]1c1ccc(OCc2ccc(Cl)cc2)cc1 (relative stereo) [Example 7, 2-((trans)-2-(4-(4-chlorobenzyloxy)phenyl)cyclopropylamino)acetamide hydrochloride] |
| 5000 to 40000 | 10 to 100 | 100 to 500 | NC(=O)CN[C@@H]1C[C@H]1c1ccc(OCc2cccc(Br)c2)cc1 (relative stereo) [Example 8, 2-((trans)-2-(4-(3-bromobenzyloxy)phenyl)cyclopropylamino)acetamide] |
